Results published in patent publication US4103008A, “7[2(2,3 Dioxopiperazin-1-yl-carbonylamino)substituted 2 phenylacetamido]-3-2'-thiadiazolyl cephalosporanic acid derivatives” (priority 1976, dated 1978).
Values after ≈ are worked out from the molar mass of the structure shown. Where two headings read alike, the source gives them in different places.

Tests used:
[1] = tested on: Pseudomonas aeruginosa E2; experiment: MIC against Pseudomonas aeruginosa E2; assay type: cell-based
Klebsilla pneumoniae = experiment: In vitro antibacterial activity (MIC); assay type: cell-based
[2] = tested on: Pseudomonas strain C73-83; experiment: In vitro antibacterial activity (MIC); assay type: cell-based; details: C7383; Pseudomonas strain C73-83; in vitro; sodium salts; read-out: MIC
Excerpt: (§1) Given below are the test results of in vitro antibacterial activity studies, serum concentrations and accumulative urinary excretions in rabbits and the protecting effects in mice, of some representative compounds of the invention.
(§2) The compounds used in the tests are shown in the following Table 1, but all of these compounds are in the form of the sodium salt.

Salmonella strain C73-1 = experiment: In vitro antibacterial activity (MIC); assay type: cell-based; details: C731; Salmonella strain C73-1; in vitro; sodium salts; read-out: MIC
Excerpt: as §1, §2

[3] = tested on: Salmonella strain C 73-30; experiment: In vitro antibacterial activity (MIC); assay type: cell-based; details: C7330; Salmonella strain C 73-30; in vitro; sodium salts; read-out: MIC
Excerpt: as §1, §2

[4] = tested on: Shigella dysenteriae shigae; experiment: microbe, parasite or virus in culture; assay type: cell-based
[5] = tested on: Staphylococcus aureus FDA 209NIH, P-J C-1; experiment: In vitro antibacterial activity (MIC); assay type: cell-based; details: Staphylococcus aureus FDA 209NIH, P-J C-1; in vitro; sodium salts; read-out: MIC
[6] = tested on: Salmonella enteritidis No. 11; experiment: In vitro antibacterial activity (MIC); assay type: cell-based; details: Salmonella enterica; Salmonella enteritidis No. 11; in vitro; sodium salts; read-out: MIC
[7] = tested on: Pseudomonas aeruginosa C73-2; experiment: In vitro antibacterial activity (MIC); assay type: cell-based; details: C732; Pseudomonas aeruginosa C73-2; in vitro; sodium salts; read-out: MIC
[8] = tested on: Bacillus substilis ATCC 6633; experiment: In vitro antibacterial activity (MIC); assay type: cell-based; details: ATCC6633; Bacillus substilis ATCC 6633; in vitro; sodium salts; read-out: MIC
[9] = tested on: Streptococcus faecalis ATCC 8043; experiment: In vitro antibacterial activity (MIC); assay type: cell-based; details: Enterococcus faecalis, ATCC8043; Streptococcus faecalis ATCC 8043; in vitro; sodium salts; read-out: MIC
[10] = tested on: Enterobacter strain C73-17; experiment: In vitro antibacterial activity (MIC); assay type: cell-based; details: C7317
Serratia strain No. 2 = experiment: In vitro antibacterial activity (MIC); assay type: cell-based; details: Serratia strain No. 2; in vitro; sodium salts; read-out: MIC
[11] = tested on: Vibrio parahaemolyticus K - 5; experiment: In vitro antibacterial activity (MIC); assay type: cell-based; details: K5; Vibrio parahaemolyticus K - 5; in vitro; sodium salts; read-out: MIC
Serratia strain No. 1 = experiment: In vitro antibacterial activity (MIC); assay type: cell-based; details: Serratia strain No. 1; in vitro; sodium salts; read-out: MIC
Proteus morganii C73-23 = experiment: In vitro antibacterial activity (MIC); assay type: cell-based; details: Morganella morganii, C7323; Proteus morganii C73-23; in vitro; sodium salts; read-out: MIC
Escherichia coli C 73-1 = experiment: In vitro antibacterial activity (MIC); assay type: cell-based; details: C731
[12] = tested on: Vibrio parahaemolyticus K - 3; experiment: In vitro antibacterial activity (MIC); assay type: cell-based; details: K3; Vibrio parahaemolyticus K - 3; in vitro; sodium salts; read-out: MIC
[13] = tested on: Pseudomonas aerugenosa E 2 strain; experiment: ED50 in Pseudomonas infection in mice; assay type: in vivo; details: ICR-JCL mouse, male, 20g; P. aerugenosa E 2 3.6 × 10^4 intraperitoneal; compound intramuscular after 2 hrs.; ED50 after 7 days; sodium salts
Excerpt: as §1, §2
Pseudomonas aerugenosa E 2 strain (3.6 × 10^4) was intraperitonealy injected to each group of 10 of ICR-JCL mouse (male, 20g). After 2 hrs., each of the test compounds was intramuscularly administered to the infected mice and the ED50 values were measured after 7 days.

[14] = tested on: Pseudomonas strain C73-63; experiment: In vitro antibacterial activity (MIC); assay type: cell-based; details: C7363; Pseudomonas strain C73-63; in vitro; sodium salts; read-out: MIC
Proteus morganii kono = experiment: In vitro antibacterial activity (MIC); assay type: cell-based; details: Morganella morganii; Proteus morganii kono; in vitro; sodium salts; read-out: MIC
[15] = Serum concentration and accumulative urinary excretion in rabbit; details: in vivo, im; for dose excreted at 6 h: 20 mg/kg; for concentration at 0.5 h: 20 mg/kg intramuscular, after 30 mins., sodium salts, Sarcina lutea assay
Procedure: as §1, §2
Each of the test compounds (20 mg/kg) was intramuscularly administered to one group of 3 rabbits, and the amounts of antibiotics were measured by a conventional method, using Sarcina lutea.

Escherichia coli C 73-4 = experiment: In vitro antibacterial activity (MIC); assay type: cell-based; details: C734; Escherichia coli C 73-4; in vitro; sodium salts; read-out: MIC
[16] = Klebsilla pneumoniae, in vitro, sodium salts, read-out: MIC
[17] = Enterobacter strain C73-17, in vitro, sodium salts, read-out: MIC
[18] = Escherichia coli C 73-1, in vitro, sodium salts, read-out: MIC

Compound	MIC [1] [µg/mL]	MIC [2] [µg/mL]	MIC (Salmonella strain C73-1) [µg/mL]	MIC [3] [µg/mL]	MIC [4] [µg/mL]	MIC [5] [µg/mL]	MIC [6] [µg/mL]	MIC [7] [µg/mL]	MIC [8] [µg/mL]	MIC [9] [µg/mL]	MIC (Serratia strain No. 2) [µg/mL]	MIC [11] [µg/mL]	MIC (Serratia strain No. 1) [µg/mL]	MIC (Proteus morganii C73-23) [µg/mL]	MIC [12] [µg/mL]	ED50 in Pseudomonas infection in mice [13] [mg/mouse]	MIC [14] [µg/mL]	MIC (Proteus morganii kono) [µg/mL]	dose excreted at 6 h [15] [%]	concentration at 0.5 h [15] [ng/mL]	also measured
CCN1CCN(C(=O)N[C@@H](C(=O)NC2C(=O)N3C(C(=O)O)=C(CSc4nncs4)CS[C@H]23)c2ccc(OC(=O)CC(C)=O)cc2)C(=O)C1=O (single isomer, unassigned) [Example 9, 7-[D(-)-α-(4-ethyl-2,3-dioxopiperazin-1-yl-carbonylamino)-p-acetoacetoxyphenylacetamido]-3-(1,3,4-thiadiazol-2-yl-thiomethyl)-3-cephem-4-carboxylic acid]	6.25 (≈ 8.54 µM)	–	–	–	–	–	–	–	–	–	–	–	–	–	–	–	–	–	–	–	–
CCN1CCN(C(=O)N[C@@H](C(=O)NC2C(=O)N3C(C(=O)O)=C(CSc4nncs4)CS[C@H]23)c2ccc(OC(=O)CC(C)=O)c(Cl)c2)C(=O)C1=O (single isomer, unassigned) [Example 10, 7-[D(-)-α-(4-ethyl-2,3-dioxopiperazin-1-yl-carbonylamino)-m-chloro-p-acetoacetoxyphenylacetamido]-3-(1,3,4-thiadiazol-2-yl-thiomethyl)-3-cephem-4-carboxylic acid]	3.13 (≈ 4.08 µM)	–	–	–	–	–	–	–	–	–	–	–	–	–	–	–	–	–	–	–	–
CCOC(=O)Oc1ccc([C@@H](NC(=O)N2CCN(CC)C(=O)C2=O)C(=O)NC2C(=O)N3C(C(=O)O)=C(CSc4nnc(C)s4)CS[C@H]23)cc1 (single isomer, unassigned) [Example 11, 7-[D(-)-α-(4-ethyl-2,3-dioxopiperazin-1-yl-carbonylamino)-p-ethoxycarbonyloxyphenylacetamido]-3-(5-methyl-1,3,4-thiadiazol-2-yl-thiomethyl)-3-cephem-4-carboxylic acid]	12.5 (≈ 17 µM)	–	–	–	–	–	–	–	–	–	–	–	–	–	–	–	–	–	–	–	–
CCOC(=O)Oc1ccc([C@@H](NC(=O)N2CCN(CC)C(=O)C2=O)C(=O)NC2C(=O)N3C(C(=O)O)=C(CSc4nnc(C)s4)CS[C@H]23)cc1Cl (single isomer, unassigned) [Example 12, 7-[D(-)-α-(4-ethyl-2,3-dioxopiperazin-1-yl-carbonylamino)-m-chloro-p-ethoxycarbonyloxyphenylacetamido]-3-(5-methyl-1,3,4-thiadiazol-2-yl-thiomethyl)-3-cephem-4-carboxylic acid]	12.5 (≈ 16.3 µM)	–	–	–	–	–	–	–	–	–	–	–	–	–	–	–	–	–	–	–	–
CCN1CCN(C(=O)N[C@@H](C(=O)NC2C(=O)N3C(C(=O)O)=C(CSc4nncs4)CS[C@H]23)c2ccc(OC(=O)OCC(C)C)cc2)C(=O)C1=O (single isomer, unassigned) [Example 17, 7-[D(-)-α-(4-ethyl-2,3-dioxopiperazin-1-yl-carbonylamino)-p-iso-butoxycarbonyloxyphenylacetamido]-3-(1,3,4-thiadiazol-2-yl-thiomethyl)-3-cephem-4-carboxylic acid]	12.5 (≈ 16.7 µM)	–	–	–	–	–	–	–	–	–	–	–	–	–	–	–	–	–	–	–	–
CCN1CCN(C(=O)N[C@@H](C(=O)NC2C(=O)N3C(C(=O)O)=C(CSc4nncs4)CS[C@H]23)c2ccc(OC(C)=O)c(Cl)c2)C(=O)C1=O (single isomer, unassigned) [IV, 7-[D(-)-α-(4-ethyl-2,3-dioxopiperazin-1-yl-carbonylamino)-m-chloro-p-acetoxyphenylacetamido]-3-(1,3,4-thiadiazol-2-yl-thiomethyl)-3-cephem-4-carboxylic acid]	–	25	1.56	1.56	0.39 (≈ 0.539 µM)	6.25	3.13	3.13	6.25	1.56	3.13	12.5	3.13	12.5	12.5	1.8	3.13	3.13	27	34900	MIC (Klebsilla pneumoniae; [16]): 0.78 µg/mL; MIC [10, 17]: 25 µg/mL; MIC (Escherichia coli C 73-1; [18]): 6.25 µg/mL; MIC (Escherichia coli C 73-4): 6.25 µg/mL
CCOC(=O)Oc1ccc([C@@H](NC(=O)N2CCN(CC)C(=O)C2=O)C(=O)NC2C(=O)N3C(C(=O)O)=C(CSc4nncs4)CS[C@H]23)cc1 (single isomer, unassigned) [V, 7-[D(-)-α-(4-ethyl-2,3-dioxopiperazin-1-yl-carbonylamino)-p-ethoxycarbonyloxyphenylacetamido]-3-(1,3,4-thiadiazol-2-yl-thiomethyl)-3-cephem-4-carboxylic acid]	–	25	1.56	1.56	0.78 (≈ 1.08 µM)	0.39	0.2	6.25	0.78	12.5	3.13	6.25	3.13	12.5	6.25	1.0	6.25	3.13	24.1	43000	MIC (Klebsilla pneumoniae; [16]): 0.39 µg/mL; MIC [10, 17]: 3.13 µg/mL; MIC (Escherichia coli C 73-1; [18]): 1.56 µg/mL; MIC (Escherichia coli C 73-4): 3.13 µg/mL
CCOC(=O)Oc1ccc([C@@H](NC(=O)N2CCN(CC)C(=O)C2=O)C(=O)NC2C(=O)N3C(C(=O)O)=C(CSc4nncs4)CS[C@H]23)cc1Cl (single isomer, unassigned) [VI, 7-[D(-)-α-(4-ethyl-2,3-dioxopiperazin-1-yl-carbonylamino)-m-chloro-p-ethoxycarbonyloxyphenylacetamido]-3-(1,3,4-thiadiazol-2-yl-thiomethyl)-3-cephem-4-carboxylic acid]	–	12.5	3.13	3.13	1.56 (≈ 2.07 µM)	0.39	0.2	12.5	0.39	6.25	6.25	12.5	6.25	12.5	12.5	0.8	3.13	3.13	17.4	19400	MIC (Klebsilla pneumoniae): 1.56 µg/mL (≈ 2.07 µM); MIC ([10]; Enterobacter): 1.56 µg/mL (≈ 2.07 µM); MIC (Escherichia coli C 73-1; Escherichia coli): 1.56 µg/mL (≈ 2.07 µM); MIC (Escherichia coli C 73-4): 3.13 µg/mL
